# Reference: ChEMBL document CHEMBL4024730 (Bioorg Med Chem Lett, 2017)
# Test system: HeLa
# Assay: Cytotoxicity against human HeLa cells assessed as cell death at 1 uM after 24 hrs MTT assay relative to control
# Format: cell-based
smiles,measurement,value
O=C(/C=C/c1ccccc1)N[C@@H](c1ccccc1)[C@@H](OC(=O)c1ccccc1)C(=O)NC1CCCCC1,Activity,< 10%
